This is an account of results in patent US7381688B2, “Methylthiophene carboxanilides” (Bayer CropScience AG, priority 2002, dated 2008).

One data set deals with Podosphaera leucotricha. The experiment in a line: Podosphaera test (apple)/protective. Format: in vivo. Conditions: 240 h, protective, evaluation 10 days after inoculation, read-out: Efficacy in %. The protocol: Podosphaera Test (Apple)/Protective
(§1) • Solvents: 24.5 parts by weight of acetone • 24.5 parts by weight dimethylacetamide • Emulsifier: 1.0 part by weight alkylaryl polyglycol ether
(§2) To produce a suitable preparation of active compound, 1 part by weight of active compound is mixed with the stated amounts of solvents and emulsifier, and the concentrate is diluted with water to the desired concentration.
To test for protective activity, young plants are sprayed with the preparation of active compound at the stated application rate. After the spray coating has dried on, the plants are inoculated with an aqueous spore suspension of the apple mildew pathogen Podosphaera leucotricha. The plants are then placed in a greenhouse at about 23° C. and a relative atmospheric humidity of about 70%.
(§3) Evaluation is carried out 10 days after the inoculation. 0% means an efficacy which corresponds to that of the control, whereas an efficacy of 100% means that no infection is observed.

Data set [1] can be described thus: logP determination by HPLC (reverse-phase C 18), EEC Directive 79/831 Annex V.A8. The format is physicochemical. Conditions: reverse-phase C18 HPLC column, 43° C. The method, then: The logP value given in the Preparation Examples and tables above are determined in accordance with EEC Directives 79/831 Annex V.A8 by HPLC (High Performance Liquid Chromatography) using a reverse-phase column (C 18). Temperature: 43° C.
The determination is carried out in the acidic range at pH 2.3 using the mobile phases 0.1% aqueous phosphoric acid and acetonitrile; linear gradient from 10% acetonitrile to 90% acetonitrile.
Calibration is carried out using unbranched alkan-2-ones (having 3 to 16 carbon atoms) with known logP values (determination of the logP values by the retention times using linear interpolation between two successive alkanones).

For another data set, the system named is Alternaria solani. The experiment in a line: Alternaria test (tomato)/protective. The format is in vivo. Conditions: protective, 750 g/ha, evaluation 7 days after inoculation. The protocol:
Alternaria Test (Tomato)/Protective
• Solvent: 49 parts by weight N,N-dimethylformamide • Emulsifier: 1 part by weight of alkylaryl polyglycol ether
(§4) To produce a suitable preparation of active compound, 1 part by weight of active compound is mixed with the stated amounts of solvent and emulsifier, and the concentrate is diluted with water to the desired concentration.
To test for protective activity, young tomato plants are sprayed with the preparation of active compound at the stated application rate. 1 day after the treatment, the plants are inoculated with a spore suspension of Alternaria solani and then remain at 100% relative humidity and 20° C. for 24 h. The plants then remain at 96% relative atmospheric humidity and a temperature of 20° C.
(§5) Evaluation is carried out 7 days after the inoculation. 0% means an efficacy which corresponds to that of the control, whereas an efficacy of 100% means that no infection is observed.

The next data set deals with Sphaerotheca fuliginea. Description: Sphaerotheca test (cucumber)/protective. To be noted: Podosphaera fuliginea, 168 h, protective, evaluation 7 days after inoculation, read-out: Efficacy in %. The format is in vivo. The protocol:
Sphaerotheca Test (Cucumber)/Protective
as §1, §2
To test for protective activity, young plants are sprayed with the preparation of active compound at the stated application rate. After the spray coating has dried on, the plants are inoculated with an aqueous spore suspension of Sphaerotheca fuliginea. The plants are then placed in a greenhouse at about 23° C. and a relative atmospheric humidity of about 70%.
as §5

The subject of a further data set is Venturia inaequalis. Description: Venturia test (apple)/protective. The format is in vivo. To be noted: 240 h, protective, evaluation 10 days after inoculation, read-out: Efficacy in %. The protocol:
Venturia Test (Apple)/Protective
• Solvents: 24.5 parts by weight acetone • 24.5 parts by weight dimethylacetamide • Emulsifier: 1.0 part by weight alkylaryl polyglycol ether
To produce a suitable preparation of the active compound, 1 part by weight of active compound is mixed with the stated amounts of solvents and emulsifier, and the concentrate is diluted with water to the desired concentration.
To test for protective activity, young plants are sprayed with the preparation of active compound at the stated application rate. After the spray coating has dried on, the plants are inoculated with an aqueous Conidia suspension of the apple scab pathogen Venturia inaequalis and then remain in an incubation cabin at about 20° C. and 100% relative atmospheric humidity for 1 day.
The plants are then placed in a greenhouse at about 21° C. and a relative atmospheric humidity of about 90%.
as §3

Another data set deals with Pyrenophora teres. The experiment in a line: Pyrenophora teres test (barley)/protective. Conditions: protective, 500 g/ha, evaluation 7 days after inoculation. Format: in vivo. The method, then:
Pyrenophora teres Test (Barley)/Protective
• Solvent: 25 parts by weight N,N-dimethylacetamide • Emulsifier: 0.6 part by weight alkylaryl polyglycol ether
as §4
To test for protective activity, young plants are sprayed with the preparation of active compound at the stated application rate. After the spray coating has dried on, the plants are sprayed with a conidia suspension of Pyrenophora teres. The plants remain in an incubation cabin at 20° C. and 100% relative atmospheric humidity for 48 hours.
The plants are then placed in a greenhouse at a temperature of about 20° C. and relative atmospheric humidity of about 80%.
as §5

The mark [2] stands for this setting: Table 1, acidic range at pH 2.3, HPLC, read-out: logP.
[3] abbreviates: pH 2.3, HPLC, read-out: logP (pH 2.3).

Molecules are shown by their SMILES. Where two headings read alike, the source gives them in different places.

Take `Cc1ccsc1C(=O)Nc1ccccc1-c1ccc(OC(F)(F)F)cc1` [Example 6]: the pest or weed control at 100 g/ha with Podosphaera leucotricha and with Sphaerotheca fuliginea was 100% in each case. In data set [1] (setting [2]), the chromatographic logP came to 4.33. Besides, the Efficacy in % in the data set with Alternaria solani is 100%.

As for `Cc1ccsc1C(=O)Nc1ccccc1-c1ccc(F)c(Cl)c1` [Example 1, N-(3′-chloro-4′-fluoro-1,1′-biphenyl-2-yl)-3-methyl-2-thiophenecarboxamide], the pest or weed control at 100 g/ha in the data set with Podosphaera leucotricha, in the data set with Venturia inaequalis and in the data set on Sphaerotheca fuliginea was 100% each time. Further, the chromatographic logP in data set [1] (setting [3]) is 3.85.

Turning to `Cc1ccsc1C(=O)Nc1ccccc1-c1ccc(F)c(F)c1` [Example 9], the pest or weed control at 100 g/ha with Podosphaera leucotricha, with Venturia inaequalis and in the data set on Sphaerotheca fuliginea was 100% in each case. Further, in data set [1] (setting [2]), the chromatographic logP stood at 3.55. The Efficacy in % in the data set on Alternaria solani and in the data set on Pyrenophora teres was 100% throughout.

As for `Cc1ccsc1C(=O)Nc1ccccc1-c1ccc(F)cc1` [Example 8], the chromatographic logP in data set [1] (setting [2]) was found to be 3.65. The Efficacy in % in the data set with Alternaria solani is on record as 100%; in the data set on Pyrenophora teres, 80%.

Turning to `Cc1ccsc1C(=O)Nc1ccccc1-c1ccc(Br)cc1` [Example 3], in data set [1] (setting [2]), the chromatographic logP is 4.12. In the data set on Alternaria solani, this compound showed an Efficacy in % of 100%.

Regarding `Cc1ccsc1C(=O)Nc1ccccc1-c1ccc(Cl)cc1F` [Example 13], the pest or weed control at 100 g/ha in the data set with Podosphaera leucotricha, with Venturia inaequalis and with Sphaerotheca fuliginea was 100% each time. The compound further had an Efficacy in % in the data set with Pyrenophora teres of 94%.

On to `Cc1ccsc1C(=O)Nc1ccccc1-c1ccc(OC(F)(F)F)c(F)c1` [Example 11], for which the pest or weed control at 100 g/ha with Podosphaera leucotricha, with Venturia inaequalis and in the data set on Sphaerotheca fuliginea was 100% each time. For the same compound, in data set [1] (setting [2]), the chromatographic logP is 4.13.

As for `Cc1ccsc1C(=O)Nc1ccccc1-c1ccc(Cl)cc1Cl` [Example 19], the pest or weed control at 100 g/ha in the data set on Podosphaera leucotricha worked out at 100%; in the data set on Venturia inaequalis, 99%; in the data set with Sphaerotheca fuliginea, 96%. The chromatographic logP in data set [1] (setting [2]) amounted to 5.76.

Regarding `Cc1ccsc1C(=O)Nc1ccccc1-c1cccc(Cl)c1` [Example 5], the pest or weed control at 100 g/ha in the data set with Podosphaera leucotricha turned out to be 100%; in the data set with Venturia inaequalis, 100%; in the data set with Sphaerotheca fuliginea, 93%. For the same compound, in data set [1] (setting [2]), the chromatographic logP turned out to be 3.97. In the data set on Alternaria solani, this compound showed an Efficacy in % of 100%.

For the compound `Cc1ccsc1C(=O)Nc1ccccc1Br` [III-1, N-(2-bromophenyl)-3-methyl-2-thiophenecarboxamide], in data set [1] (setting [3]), the chromatographic logP came out at 3.3.

On to `Cc1ccsc1C(=O)Nc1ccccc1-c1cc(Cl)cc(Cl)c1` [Example 15], for which the pest or weed control at 100 g/ha in the data set with Podosphaera leucotricha turned out to be 100%; in the data set on Venturia inaequalis, 97%; with Sphaerotheca fuliginea, 100%. In addition, the chromatographic logP in data set [1] (setting [2]) was 4.32.

For the compound `Cc1ccsc1C(=O)Nc1ccccc1-c1ccc(OC(F)(F)F)c(C(F)(F)F)c1` [Example 12], the pest or weed control at 100 g/ha in the data set on Podosphaera leucotricha and in the data set with Sphaerotheca fuliginea was 100% throughout. The chromatographic logP in data set [1] (setting [2]) was determined as 4.37.

Take `Cc1ccsc1C(=O)Nc1ccccc1-c1ccc(Cl)c(F)c1` [Example 10]: the pest or weed control at 100 g/ha in the data set with Podosphaera leucotricha, in the data set with Venturia inaequalis and in the data set with Sphaerotheca fuliginea was 100% in each case. Besides, the chromatographic logP in data set [1] (setting [2]) worked out at 3.85. The Efficacy in % in the data set with Alternaria solani stood at 100%.
